The assay has as its target Corticotropin-releasing factor receptor 2 (Sus scrofa). As to the kind of experiment: Inhibition of [125I]- sauvagine binding to corticotropin releasing factor receptor 2 of porcine choroid plexus.

Broadly, the IC50 is the midpoint of a concentration-inhibition curve. Low values mean inhibition by little substance, high ones a need for much substance.

Turning to `CCc1nc2c(n1C(C1CC1)C1CC1)C(=O)N(C)CN2c1ccc(Cl)cc1Cl` [3-(2,4-Dichloro-phenyl)-7-dicyclopropylmethyl-8-ethyl-1-methyl-1,2,3,7-tetrahydro-purin-6-one], the concentration for half-maximal inhibition (IC50) was more than 10 µM.

The record behind these values is BindingDB's records for doi:10.1021/jm049787k (Pharmaceutical Research Institute, 2004).
